Source: paper PMC11494886, “Discovery and design of molecular glue enhancers of CDK12–DDB1 interactions for targeted degradation of cyclin K” (RSC Chemical Biology, 2024)

Legend:
HiBiT-tagged cyclin K = experiment: HiBiT cyclin K degradation assay (DC50, Dmax); format: cell-based; conditions: HiBiT-CCNK KI A549 cells, 2 hours
Procedure: Next, we utilized HiBiT technology (Promega) for quantitative analysis of cyclin K degrader activity. […] Importantly, knockout of CDK12 using CRISPR/Cas9 protected cyclin K from SR-4835-induced degradation (Fig. 1D). We verified the depletion of CDK12 in HEK-293T cells (Fig. S3, ESI ^†).
The HiBiT-CCNK KI A549 cells (Promega) were seeded in 384 well plate and treated with the test compounds for 2 hours in a dose dependent manner. Nano-Glo® HiBiT Lytic Detection System (Promega) composed of the Nano-Glo® HiBiT Lytic Substrate, Nano-Glo® HiBiT Lytic Buffer and LgBiT Protein was used as per the manufacturer's instructions. Briefly, a 2× Nano-Glo® HiBiT Lytic Detection Reagent mixture was prepared by adding 20 μL of Nano-Glo® HiBiT Lytic Substrate and 10 μL of LgBiT protein per every 1 mL of Nano-Glo® HiBiT Lytic Buffer. After incubating the cells with the 2× Nano-Glo® HiBiT Lytic Detection Reagent mixture, luminescence was measured. HiBiT tagged cyclin K present at any given concentration was measured by normalizing the luminescence signal at that concentration to the luminescence signal from the DMSO (control) cells. The concentration necessary to achieve a 50% reduction in cyclin K levels (DC50) and the maximum achievable reduction in cyclin K levels (Dmax) was computed from this assay.

HEK-293TDDB1-shRNA cells = experiment: CellTiter-Glo viability assay, HEK-293T DDB1-shRNA; format: cell-based, human; conditions: 72 hours; for EC50: Homo sapiens, HEK-293T DDB1 shRNA, CellTiter-Glo, read-out: EC50 cell viability
Source text: (§1) For stable genetic knock-down of DDB1 in cells, predesigned and validated TRC2-pLKO-puro shRNA plasmids for DDB1 (TRCN0000082855 and TRCN0000082856), and a non-targeting shRNA plasmid (SHC001) were obtained from Millipore Sigma. All plasmids were purified using the Qiagen Maxiprep kit (Qiagen). FuGENE HD 6 transfection reagent (Promega) was used for transfection of plasmids and lentiviral gene/shRNA constructs. Mission lentiviral packaging mix (Millipore Sigma) was used to package lentiviral plasmids into lentiviral particles in HEK293T cells, as per manufacturer's protocols. The resultant virus was concentrated using Vivaspin 20 centrifugal concentrators (Sartorius). MDA-MB-231 and HEK293T cells were transduced with lentivirus. Stable knocked down DDB1 (shDDB1-231 and shDDB1-HEK293T) cells were generated after selection with the antibiotic puromycin, and genetic knockdown was confirmed by western blotting.
(§2) Cell viability was measured by Cell Titer Glo assay kit (Promega, USA). EC50 was determined from the nonlinear regression and a four-parameter algorithm on the GraphPad Prism software.

HEK-293T cells = experiment: CellTiter-Glo viability assay, WT HEK-293T; format: cell-based; conditions: Homo sapiens, 72 hours, read-out: EC50 cell viability
Source text: (§3) MDA-MB-231 (human triple-negative breast cancer cells) and HEK293T (human embryonic kidney cells) were purchased from the American type culture collection (ATCC) and maintained in Dulbecco's modified Eagle's medium (DMEM) (Gibco) supplemented with 10% (v/v) heat-inactivated fetal bovine serum (FBS) (Gibco) and penicillin/streptomycin (100 U mL^−1 each). HiBiT-CCNK KI A549 cells, purchased from Promega, were maintained in F12 medium supplemented with 10% (v/v) heat-inactivated fetal bovine serum (FBS) (Gibco) and penicillin/streptomycin (100 U mL^−1 each). DDB1-knockdown MDA-MB-231 and DDB1-knockdown HEK293T cell lines were maintained in the same media formulation as their corresponding wild-type cell lines. All cell lines were cultured at 37 °C in an incubator with CO2 levels maintained at 5%.
as §2

[1] = tested on: MDA-MB-231DDB1-shRNA cells; experiment: CellTiter-Glo viability assay, MDA-MB-231 DDB1-shRNA; format: cell-based, human; conditions: for EC50: Homo sapiens, MDA-MB-231 DDB1 shRNA, 72 hours, CellTiter-Glo, read-out: EC50 cell viability
Source text: as §1, §2

MDA-MB-231 cells = experiment: CellTiter-Glo viability assay, WT MDA-MB-231; format: cell-based; conditions: Homo sapiens; WT MDA-MB-231, 72 hours, CellTiter-Glo; read-out: EC50 cell viability
Source text: as §3, §2

Cdk12/CycK = biological target: T1, Cdk12/CycK (Homo sapiens, UniProt Q9NYV4); experiment: Thermal stability (nanoDSF) of Cdk12/CycK; format: binding; conditions: Cdk12/CycK 5 μM, 3-fold molar excess of compound
T1 construct: GST (N, cleaved yes); made in house; host or cells: Sf9 insect cells (MultiBacTurbo), co-expressed with S. cerevisiae CAK1
T1 sequence (Q9NYV4 714-1063): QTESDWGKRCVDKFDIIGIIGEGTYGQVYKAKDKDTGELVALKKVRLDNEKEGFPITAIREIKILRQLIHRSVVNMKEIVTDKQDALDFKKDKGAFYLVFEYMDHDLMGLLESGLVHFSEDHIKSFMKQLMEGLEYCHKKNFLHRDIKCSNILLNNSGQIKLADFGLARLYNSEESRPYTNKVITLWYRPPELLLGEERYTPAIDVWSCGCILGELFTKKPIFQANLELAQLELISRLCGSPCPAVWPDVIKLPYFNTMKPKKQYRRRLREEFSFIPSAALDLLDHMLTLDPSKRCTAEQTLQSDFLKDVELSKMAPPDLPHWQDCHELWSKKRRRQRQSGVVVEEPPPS
T1 sequence (O75909 1-267 partner limits assumed): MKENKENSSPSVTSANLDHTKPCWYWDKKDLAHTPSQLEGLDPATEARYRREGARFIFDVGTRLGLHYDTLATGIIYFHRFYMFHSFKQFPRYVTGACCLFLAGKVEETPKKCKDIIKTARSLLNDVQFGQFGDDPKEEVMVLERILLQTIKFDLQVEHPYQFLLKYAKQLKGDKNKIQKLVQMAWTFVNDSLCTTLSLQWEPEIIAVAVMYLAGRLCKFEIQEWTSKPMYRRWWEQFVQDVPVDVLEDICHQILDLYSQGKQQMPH
Source text: Synthetic genes, codon optimized for expression in Sf9 insect cells, comprising the kinase domain of human Cdk12 (residues 714–1063, UniProt accession number Q9NYV4) and cyclin box domains of human cyclin K (residues 1–267, UniProt accession number O75909) were purchased from GeneArt. The coding sequence of Cdk12 was integrated into the pACEBac1 acceptor vector, while CycK was introduced into pIDK donor vector. Both target vectors underwent modification, wherein a GST-affinity tag followed by a tobacco etch virus (TEV) protease cleavage site was introduced upstream of the protein coding sequence. A pIDC donor vector was employed to insert full-length CDK-activating kinase CAK1 (UniProt accession number P43568) from S. cerevisiae devoid of any affinity tag. Cre recombination was performed to combine all three vectors in vitro, resulting in fused vectors suitable for co-expression in Sf9 insect cells. […]
To investigate the thermal stability of proteins and protein complexes in solution, as well as to examine the impact of small molecular compounds on the proteins stability, the nano-differential scanning fluorimetry (nanoDSF) method was employed using a Prometheus NT.48 (NanoTemper) device. […] Thermal stability was monitored over a temperature range of 20–90 °C with a linear gradient of 1.5 °C min^−1, utilizing the PR.ThermControl software (NanoTemper). […]

SMILES	Dmax (maximum reduction in cyclin K levels) (HiBiT-tagged cyclin K; vs DMSO) [%]	DC50 (HiBiT-tagged cyclin K; read-out: DC50 (concentration for 50% reduction in cyclin K levels)) [nM]	EC50 (HEK-293TDDB1-shRNA cells) [nM]	EC50 (HEK-293T cells) [nM]	EC50 [1] [nM]	EC50 (MDA-MB-231 cells) [nM]	ΔTm (elevation of melting temperature) (Cdk12/CycK)	reduction in cyclin K levels (HiBiT-tagged cyclin K; dose-response)	fold change of EC50 (DDB1 shRNA vs WT) (HEK-293TDDB1-shRNA cells; HEK-293T DDB1 shRNA vs WT HEK-293T)	fold change of EC50 (DDB1 shRNA vs WT) ([1]; MDA-MB-231 DDB1 shRNA vs WT MDA-MB-231, 72 hours)
Cn1cc(-n2cnc3c(NCc4nc5cc(Cl)c(Cl)cc5[nH]4)nc(N4CCOCC4)nc32)cn1 [SR-4835]	> 95	~90	2000	188	218	55	+4.1 °C			
CN(C)C/C=C/C(=O)Nc1ccc(C(=O)N2CCC[C@@H](Nc3ncc(Cl)c(-c4c[nH]c5ccccc45)n3)C2)cc1 [THZ531, reference compound]			231	128	65	72	+4.15 °C	no reduction in cyclin K levels	ns	0.9
